Measurements from patent US11214548B2, “Cannabinoid receptor modulators” (priority 2009, dated 2022).

Columns and labels:
[1] = test system: hypersensitivity following ligation of spinal nerves; details: rats, cited from earlier work
hyperalgesia = details: rodents, systemic delivery; cited from earlier work
RPE cells = details: cited from earlier work
acute and chronic pain = details: animal studies; cited from earlier work
vagus nerve preparations = details: guinea pig and human vagus nerve preparations in vitro; cited from earlier work
[2] = test system: MIA model of osteoarthritis; assay: MIA model of osteoarthritis pain (von Frey, weight distribution, grip strength); assay type: in vivo, male Sprague Dawley rats; details: 3, 10 and 30 mg/kg orally, one hour after dosing, FIG. 2
Description: Example 5: Effect of Compounds on Osteoarthritis Pain
Injection of monosodium iodoacetate (MIA) into a joint (Kalbhen, 1987) inhibits the activity of glyceraldehyde-3-phosphate dehydrogenase in chondrocytes, resulting in disruption of glycolysis and eventually in cell death. The progressive loss of chondrocytes results in histological and morphological changes of the articular cartilage, closely resembling those seen in osteoarthritis patients.
The osteoarthritis was induced in 200 g male Sprague Dawley rats. […]
Typically during disease progression, there was an inflammation period of 0-7 days post-intra-articular injection followed by progressive degeneration of the cartilage and subchondral bone from days 14-55. […] Tactile allodynia was measured via von Frey assay, hind limb paw weight distribution was monitored using an incapacitence tester (Columbus Instruments, Columbus, Ohio, USA) and hind limb grip strength was measured using a grip strength meter (Columbus Instruments, Columbus, Ohio, USA). […] Hind paw weight distribution was determined by placing rats in a chamber so that each hind paw rests on a separate force plate of the incapacitence tester. The force exerted by each hind limb (measured in grams) is averaged over a 3 second period. Three measurements were taken for each rat, and the change in hind paw weight distribution calculated. […]

[3] = test system: paclitaxel model of cancer pain; assay: Paclitaxel-induced allodynia in Sprague Dawley rats; assay type: in vivo, male Sprague Dawley rats; details: 10 mg/kg orally
Protocol: Example 8: Paclitaxel-Induced Allodynia in Sprague Dawley Rats
Male Sprague Dawley rats [200-250 g] (Harlan Laboratories Inc., Livermore, Calif.) were housed three per cage and maintained in a humidity-controlled (40-60%) and temperature-controlled (68-72° F.) facility on a 12 h:12 h light/dark cycle (lights on at 6:30 am) with free access to food (Harlan Teklad, Orange, Calif., Rodent Diet 8604) and water. Rats were allowed one week of habituation to the animal facility before starting treatment.
Rats were treated intraperitoneally, with 2 mg/kg of paclitaxel (Sigma Aldrich, Saint Louis, Mo.) in 10% Cremophor vehicle (500 μL) on days 0, 2, 4, and 6.
Tactile allodynia was tested using von Frey filaments. Briefly, the von Frey assay was performed using the standardized up down method with von Frey filaments, that determine the tactile sensitivity of the paw. By applying the increasingly or decreasingly thicker filaments to the paw in a logarithmic scale of actual force, a linear scale of perceived intensity is determined.
Eight days after the start of paclitaxel dosing, a baseline measurement (von Frey assay) was performed prior to dosing of compounds. […] As a positive control, rats were dosed intraperitoneally with 100 mg/kg gabapentin in water. The dosing volume for oral and peritoneal treatment was 500 μL. […]

[4] = test system: FCA-induced hyperalgesia model of inflammatory pain; assay: FCA-induced hyperalgesia in rats; assay type: in vivo, male Sprague Dawley rats; details: 0.1, 1, 3, 10 and 30 mg/kg orally, 1 h post dosing, FIG. 1
Protocol: Example 7: Effect of Compounds on FCA-Induced Hyperalgesia in Rats
Male Sprague Dawley rats from Harlan (200-225 g when received) were used. Upon arrival, rats were housed 4 per cage in shoe-box polycarbonate cages with wire tops, wood chip bedding and suspended food and water bottles. Animals were acclimated for 5-7 days prior to being injected with Freund's complete adjuvant (FCA) (Sigma; catalog #5881).
2 days (48 h) before testing compounds, baseline readings of all rats were taken right before FCA injection. Rats were then injected with 50 μL FCA containing 1 mg/mL Mtb (Mycobacterium tuberculosis) in right hind footpad under inhalation anesthesia (isoflurane). 48 hours after FCA injection, readings were taken as pre-dosing baseline and then rats were dosed orally with 0.5 mL of vehicle or compound (0.5 mL per 250 g rat). Readings were taken again at 1 h post dosing. All readings were taken with an Analgesy-Meter (Ugo Basile) which measures mechanical hyperalgesia via paw pressure.
FCA-induced hyperalgesia was tested with an Analgesy-Meter. Briefly, the Analgesy Meter applied an increasing pressure to the right hind paw. The paw withdrawal threshold was the pressure leading to withdrawal.
Meanwhile a group of rats were dosed orally with 50 mg/kg of Diclofenac as a positive control. Readings were taken again at 1 h post dosing. Dosing volume was 500 μL per 250 g rat.

[5] = test system: Streptozotocin-Induced Painful Diabetic Peripheral Neuropathy (PDPN) Model; assay: Streptozotocin-induced painful diabetic peripheral neuropathy (PDPN) model; assay type: in vivo, male Sprague-Dawley rats; details: 10 mg/kg orally in 0.5% methylcellulose; 1, 4 and 6 hours post-dosing, FIG. 17 and FIG. 18
Protocol: Example 12: Streptozotocin-Induced Painful Diabetic Peripheral Neuropathy (PDPN) Model
Male Sprague-Dawley rats were injected intraperitoneally with 50 mg/kg of streptozotocin (STZ) in sodium citrate buffer. 10% sucrose water was provided ad libitum for the first 48 hours post-STZ followed by regular drinking water. Rats were monitored once weekly for blood glucose levels and body weights. Development of tactile allodynia over time was analyzed using Von Frey filaments and a 50% withdrawal threshold was determined using Dixon's up-down procedure. […] Tactile allodynia was evaluated at 1, 4 and 6 hours post-dosing.

[6] = test system: allergic contact dermatitis; details: mouse, injection; cited from earlier work
[7] = test system: bovine nasal cartilage explants; details: bovine nasal cartilage explants in vitro; cited from earlier work
[8] = test system: histamine-induced responses; details: human skin, topical administration; cited from earlier work
[9] = test system: capsaicin-induced hyperalgesia and allodynia; details: humans, topical administration; cited from earlier work
[10] = test system: ovariectomy-induced bone loss; details: in vivo; cited from earlier work
EAE = details: cited from earlier work
[11] = test system: bone marrow-derived osteoblasts/stromal cells; details: in vitro; cited from earlier work
cough = details: conscious guinea-pigs, administration prior to citric acid; cited from earlier work
atherosclerosis = details: cited from earlier work
EAU = EAU model in mice; cited from earlier work
capsaicin-induced coughs = details: mice; cited from earlier work
CB1 = details: exogenous administration; cited from earlier work

## COc1ccc(C(=O)c2c(C)n(CCN3CCOCC3)c3cc(I)ccc23)cc1 [AM630]
[1]
  inhibition of the AM1241 effect on tactile and thermal hypersensitivity: inhibited

## CN1CCCCC1Cn1cc(C(=O)c2cc([N+](=O)[O-])ccc2I)c2ccccc21 (stereo not shown) [AM1241]
hyperalgesia
  hyperalgesia induced in the carrageenan, capsaicin, and formalin models: suppresses
[1]; local (subcutaneous) or systemic administration, chronic constriction injury model
  tactile and thermal hypersensitivity: reverses

## CCCCCCC(C)(C)c1ccc([C@@H]2C[C@H](O)CC[C@H]2CCCO)c(O)c1 [CP55,940]
RPE cells
  protection of RPE cells from oxidative damage: significantly protects
Acute and chronic pain
  effect against acute and chronic pain from chemical, mechanical, and thermal pain stimuli: effective
Vagus nerve preparations
  capsaicin-, PGE2- and hypertonic saline-induced depolarization: reduces

## CC(C)(CO)NC(=O)c1nn(-c2ccc(F)cc2F)c2c1C[C@H]1C[C@@H]21 [Compound 493, (1aR,5aR)-2-(2,4-Difluoro-phenyl)-1a,2,5,5a-tetrahydro-1H-2,3-diaza-cyclopropa[a]pentalene-4-carboxylic Acid (2-Hydroxy-1,1-dimethyl-ethyl)-amide]
[2]
  paw withdrawal threshold (PWT) in comparison with vehicle: Increase in paw withdrawal threshold (PWT)
[3]; von Frey time course
  time of maximum efficacy post-dosing: 1 h
[3]; 30, 60 and 180 minutes after dosing, FIG. 3
  paw withdrawal threshold (PWT) in comparison with vehicle and gabapentin: increase in paw withdrawal threshold (PWT)
[4]
  paw withdrawal threshold (PWT) in comparison with the vehicle: increase in paw withdrawal threshold (PWT)

## CC(C)(C)[C@@H](CO)NC(=O)c1nn(-c2c[n+]([O-])ccn2)c2c1C[C@@H]1C[C@H]21 [Compound 699, (1aS,5aS)-2-(4-Oxy-pyrazin-2-yl)-1a,2,5,5a-tetrahydro-1H-2,3-diaza-cyclopropa[a]pentalene-4-carboxylic Acid ((S)-1-Hydroxymethyl-2,2-dimethyl-propyl)-amide]
[5]
  analgesic efficacy (tactile allodynia, 50% withdrawal threshold): robust and sustained analgesic efficacy over 6 hours

## CC(C)(NC(=O)c1nn(-c2c[n+]([O-])ccn2)c2c1C[C@@H]1C[C@H]21)C(F)(F)F [Compound 919, (1aS,5aS)-2-(4-Oxy-pyrazin-2-yl)-1a,2,5,5a-tetrahydro-1H-2,3-diaza-cyclopropa[a]pentalene-4-carboxylic acid (2,2,2-trifluoro-1,1-dimethyl-ethyl)-amide]
[5]
  analgesic efficacy (tactile allodynia, 50% withdrawal threshold): robust and sustained analgesic efficacy over 6 hours

## Cc1c(C(=O)NN2CCCCC2)nn(-c2ccc(Cl)cc2Cl)c1-c1ccc(Cl)cc1 [Compound S141716A, S141716A]
[6]
  cutaneous inflammation and the pruritis (itch) associated with it: exacerbates

## COc1ccc2c(c1)c(CCN1CCOCC1)c(C)n2C(=O)c1cccc(Cl)c1Cl [GW405833]
[1]; administered systemically
  hypersensitivity to mechanical stimuli: significantly reverses

## CCCCCCC(C)(C)c1cc(O)c2c(c1)OC(C)(C)[C@@H]1CC=C(CO)C[C@@H]21 [HU-210]
[7]
  IL-1alpha-stimulated proteoglycan and collagen degradation: significantly inhibit
[8]
  histamine-induced responses: reduces
[9]
  capsaicin-induced hyperalgesia and allodynia: attenuates

## CCCCCCC(C)(C)c1cc(OC)c([C@@H]2C=C(CO)[C@@H]3C[C@H]2C3(C)C)c(OC)c1 [HU-308]
[10]
  ovariectomy-induced bone loss: attenuates
EAE; EAE model
  recruitment of immature myeloid cells and T cells, microglial and infiltrating myeloid cell proliferation, and axonal loss: markedly reduces
[11]
  endocortical osteoblast numbers and activity: enhances
  proliferation of osteoclast precursors: inhibiting

## CCCn1c(C)c(C(=O)c2cccc3ccccc23)c2ccccc21 [JWH015]
RPE cells
  protection of RPE cells from oxidative damage: comparable protection

## CCCC(C)(C)c1ccc2c(c1)OC(C)(C)[C@@H]1CC=C(C)C[C@@H]21 [JWH133]
Vagus nerve preparations
  capsaicin-, PGE2- and hypertonic saline-induced depolarization: reduces
cough
  cough: significantly reduces

## CCCCCc1cc(O)c2c(c1)OC(C)(C)[C@@H]1CCC(C)=C[C@@H]21 [THC]
[6]
  cutaneous inflammation and the pruritis (itch) associated with it: reduces
EAE; EAE mouse model
  severity of clinical disease: significantly inhibits
Acute and chronic pain
  effect against acute and chronic pain from chemical, mechanical, and thermal pain stimuli: effective
atherosclerosis; ApoE knockout mice
  progression of atherosclerosis: reduces

## Cc1c(C(=O)c2cccc3ccccc23)c2cccc3c2n1[C@H](CN1CCOCC1)CO3 [WIN 55212-2]
[7]
  IL-1alpha-stimulated proteoglycan and collagen degradation: significantly inhibit
EAU
  neuroprotection: significant neuroprotection
capsaicin-induced coughs
  number of capsaicin-induced coughs: dose-dependent inhibition
EAE; EAE mouse model
  leukocyte rolling and adhesion in the brain: significantly inhibits
Acute and chronic pain
  effect against acute and chronic pain from chemical, mechanical, and thermal pain stimuli: effective

## CCCCC/C=C\C/C=C\C/C=C\C/C=C\CCCC(=O)NCCCl [arachidonyl-2-chloroethylamide]
CB1
  pain: reduces

## SR144528
[6]
  cutaneous inflammation and the pruritis (itch) associated with it: exacerbates
EAE; EAE mouse model
  blockade of the WIN 55212-2 effect on leukocyte rolling and adhesion: blocked
atherosclerosis; in vitro and in vivo
  blockade of the THC effect on atherosclerosis: completely blocks
